In patent publication US10131670B2, “Bicyclic heteroaryl derivatives as CFTR potentiators” (CYSTIC FIBROSIS FOUNDATION THERAPEUTICS, INC., priority 2016, dated 2018):
pEC50: −log10 of the molar value.

Columns and labels:
F508del = F508del (Homo sapiens (Human), UniProt P13569, DEL508-508); conditions: F508del homozygote patients; cited from earlier work
G551D = G551D (Homo sapiens, UniProt P13569, G551D); conditions: G551D patients; cited from earlier work
F508del V470 CFTR = F508del V470 CFTR (Homo sapiens, UniProt P13569, DEL508-508); assay: FRT Ion Flux Assay of F508del CFTR Potentiation; assay type: cell-based; conditions: FRT cells expressing F508del V470 CFTR and halide-sensitive YFP, forskolin 20 uM, 30 min
Chain of F508del V470 CFTR (P13569 with tags, fused parts or gaps DEL508-508): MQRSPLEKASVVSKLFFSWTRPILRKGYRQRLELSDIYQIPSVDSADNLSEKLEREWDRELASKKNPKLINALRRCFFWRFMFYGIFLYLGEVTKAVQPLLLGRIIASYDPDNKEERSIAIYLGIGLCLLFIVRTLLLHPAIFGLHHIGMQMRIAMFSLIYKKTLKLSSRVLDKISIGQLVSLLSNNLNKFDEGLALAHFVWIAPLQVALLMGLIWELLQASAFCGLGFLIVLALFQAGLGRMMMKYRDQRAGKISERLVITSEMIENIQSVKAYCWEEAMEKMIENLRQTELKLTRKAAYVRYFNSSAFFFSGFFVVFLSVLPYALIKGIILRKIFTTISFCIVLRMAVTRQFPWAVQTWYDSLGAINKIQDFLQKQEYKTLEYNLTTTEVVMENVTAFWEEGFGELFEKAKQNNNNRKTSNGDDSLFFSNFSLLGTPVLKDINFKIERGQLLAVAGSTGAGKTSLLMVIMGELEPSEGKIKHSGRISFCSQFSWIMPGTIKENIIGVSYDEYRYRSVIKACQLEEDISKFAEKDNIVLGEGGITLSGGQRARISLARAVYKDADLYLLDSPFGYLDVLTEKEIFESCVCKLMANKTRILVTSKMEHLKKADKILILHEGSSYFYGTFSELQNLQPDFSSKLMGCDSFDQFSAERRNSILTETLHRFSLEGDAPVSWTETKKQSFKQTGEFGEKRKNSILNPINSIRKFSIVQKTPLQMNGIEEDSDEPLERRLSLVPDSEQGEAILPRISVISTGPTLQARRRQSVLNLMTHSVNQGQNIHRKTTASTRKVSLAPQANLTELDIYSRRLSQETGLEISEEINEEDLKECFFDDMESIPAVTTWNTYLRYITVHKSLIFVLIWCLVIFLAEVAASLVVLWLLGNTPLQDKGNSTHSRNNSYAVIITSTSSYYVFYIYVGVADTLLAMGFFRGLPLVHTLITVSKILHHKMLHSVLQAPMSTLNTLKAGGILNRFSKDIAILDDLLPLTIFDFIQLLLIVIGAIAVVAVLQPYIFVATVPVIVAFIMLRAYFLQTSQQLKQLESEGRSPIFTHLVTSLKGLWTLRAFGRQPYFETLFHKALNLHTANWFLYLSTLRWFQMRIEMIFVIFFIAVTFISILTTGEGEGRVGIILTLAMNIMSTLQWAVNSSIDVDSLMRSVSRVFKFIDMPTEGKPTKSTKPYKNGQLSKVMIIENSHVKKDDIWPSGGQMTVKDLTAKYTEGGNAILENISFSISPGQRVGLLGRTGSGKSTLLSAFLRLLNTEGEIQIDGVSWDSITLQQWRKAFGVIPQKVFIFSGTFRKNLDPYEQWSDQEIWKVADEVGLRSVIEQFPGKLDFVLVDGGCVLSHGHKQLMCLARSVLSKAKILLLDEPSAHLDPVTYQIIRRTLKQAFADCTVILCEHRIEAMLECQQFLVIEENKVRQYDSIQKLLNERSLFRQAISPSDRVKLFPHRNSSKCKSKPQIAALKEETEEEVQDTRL
Method: FRT Ion Flux Assay of F508del CFTR Potentiation
Fischer rat thyroid (FRT) cell lines stably expressing recombinant F508del V470 CFTR and halide-sensitive yellow fluorescent protein (Pedemonte et al., J. Clin. Invest. 115(9) 2564-71 (2005)) were seeded at 25,000 cells/well in 50 uL/well of culture medium into black-walled, clear bottom tissue-culture-treated 384-well plates (Corning, cat. no. 3712). After one day, the cells were pre-incubated at 27° C./5% CO2 for 16-24 hours. The cells were then washed with dPBS and treated with forskolin (20 uM) and test compound for 30 min by addition of 20 uL of compound dilution buffer (dPBS containing forskolin and test compound). Plates were loaded into FLIPR384 fluorescence imaging plate reader (Molecular Devices). After an initial fluorescence reading, iodide buffer (25 uL) (composition (in mM): 137 NaI, 1.5 K2PO4, 8.1 NaH2PO4, 2.7 KCl, 0.5 MgCl2, 1 CaCl2) was added and a second fluorescence reading was made after approximately 21 seconds. Data treatment involved division of the second fluorescence reading by the initial fluorescence reading, then scaling of the resulting normalized endpoint fluorescence with respect to the responses for DMSO (0%) and a positive control potentiator (100%).

CFTR = CFTR (Homo sapiens, UniProt P13569); assay: Ussing Chamber Electrophysiology Assay of CFTR Potentiation in CF Bronchial Epithelial Cells; assay type: cell-based; conditions: primary CF hBE cells, short-circuit current, scaled to DMSO (0%) and positive control potentiator (100%)
Text: Ussing Chamber Electrophysiology Assay of CFTR Potentiation in CF Bronchial Epithelial Cells
Primary cystic fibrosis human bronchial epithelial (CF hBE) cells were expanded and cultured according to published methods (Neuberger et al., Ch. 4 of Cystic Fibrosis, Methods in Molecular Biology vol. 741, pp. 39-54 (2011)). Well-differentiated cells (>30 days at air/liquid interface) on Snapwell filters (Corning Costar, cat. no. 3801) were mounted in Ussing chambers (Physiologic Instruments, Inc., San Diego, Calif.). F508del/F508del cultures were assayed at 27° C. and G551D/F508del cells were assayed at 35° C. HEPES buffered physiological saline (composition (in mM): 137 NaCl, 4 KCl, 1 MgCl2, 1.8 CaCl2, 10 HEPES Na) was used in both apical and basolateral chambers. Chambers were bubbled with air to promote mixing and the voltage was clamped to zero. Amiloride (30 uM), forskolin (10 uM), test compound (4 increasing concentrations), and CFTRinh-172 (20 uM) were added sequentially with 20-25 minutes between additions. Short-circuit currents were acquired and analyzed using LabScribe2. Test compound responses were scaled relative to responses for DMSO (0%) and the maximal response of a positive control potentiator (100%).

Chain of F508del (P13569 other isoform, or with tags, fused parts or gaps del F508-F508): as the sequence (P13569 with tags, fused parts or gaps DEL508-508) above

SMILES | improvement with monotherapy (F508del) | percent predicted FEV1 increased (G551D) | pEC50 (F508del V470 CFTR) | pEC50 (CFTR)
CC(C)(C)c1cc(C(C)(C)C)c(NC(=O)c2c[nH]c3ccccc3c2=O)cc1O [Kalydeco®, ivacaftor] | did not lead to any appreciable improvement | 10-13% | – | –
CC(c1cn(-c2ccc(F)cc2F)nn1)c1c(C#N)c(-c2cnc(C(F)(F)F)nc2)c2c(N)ncnn12 (single isomer, unassigned) [Example 3, 4-amino-7-{1-[1-(2,4-difluorophenyl)-1H-1,2,3-triazol-4-yl]ethyl}-5-[2-(trifluoromethyl)pyrimidin-5-yl]pyrrolo[2,1-f][1,2,4]triazine-6-carbonitrile] | – | – | 7.97 | 7.84
CCC(c1cn(-c2cc(F)ccc2F)nn1)c1cc(-c2cnc(C(F)(F)F)nc2)c2c(N)ncnn12 (single isomer, unassigned) [Example 62, 7-{1-[1-(2,5-difluorophenyl)-1H-1,2,3-triazol-4-yl]propyl}-5-[2-(trifluoromethyl)pyrimidin-5-yl]pyrrolo[2,1-f][1,2,4]triazin-4-amine] | – | – | 7.75 | 8.00
CCC(c1cn(-c2ccc(F)c(F)c2)nn1)c1c(C#N)c(-c2cnc(C(F)(F)F)nc2)c2c(N)ncnn12 (single isomer, unassigned) [Example 9, 4-amino-7-{1-[1-(3,4-difluorophenyl)-1H-1,2,3-triazol-4-yl]propyl}-5-[2-(trifluoromethyl)pyrimidin-5-yl]pyrrolo[2,1-f][1,2,4]triazine-6-carbonitrile] | – | – | 7.38 | 7.55
N#Cc1c(-c2cnc(C(F)(F)F)nc2)c2c(N)ncnn2c1Cc1cn(-c2ccccc2F)nn1 [Example 22, 4-amino-7-{[1-(2-fluorophenyl)-1H-1,2,3-triazol-4-yl]methyl}-5-[2-(trifluoromethyl)pyrimidin-5-yl]pyrrolo[2,1-f][1,2,4]triazine-6-carbonitrile] | – | – | 7.63 | 7.57
CCC(c1cn(-c2ccc(F)c(F)c2)nn1)c1cc(-c2cnc(C(F)(F)F)nc2)c2c(N)ncnn12 (single isomer, unassigned) [Example 64, 7-{1-[1-(3,4-difluorophenyl)-1H-1,2,3-triazol-4-yl]propyl}-5-[2-(trifluoromethyl)pyrimidin-5-yl]pyrrolo[2,1-f][1,2,4]triazin-4-amine] | – | – | 6.32 | 6.75
CC(c1cn(-c2ccccc2F)nn1)c1cc(-c2cnc(C(F)(F)F)nc2)c2c(N)ncnn12 (single isomer, unassigned) [Example 53, 7-{1-[1-(2-fluorophenyl)-1H-1,2,3-triazol-4-yl]ethyl}-5-[2-(trifluoromethyl)pyrimidin-5-yl]pyrrolo[2,1-f][1,2,4]triazin-4-amine] | – | – | 7.12 | 6.77
CCC(c1cn(-c2ccccc2F)nn1)c1cc(-c2cncnc2OC)c2c(N)ncnn12 (centres unmarked) [Example 83, 7-{1-[1-(2-fluorophenyl)-1H-1,2,3-triazol-4-yl]propyl}-5-(4-methoxypyrimidin-5-yl)pyrrolo[2,1-f][1,2,4]triazin-4-amine] | – | – | 7.74 | 7.80
CCC(c1cn(-c2ccccc2F)nn1)c1cc(-c2cnc(C(F)(F)F)nc2)c2c(N)ncnn12 (centres unmarked) [Example 82, 7-{1-[1-(2-fluorophenyl)-1H-1,2,3-triazol-4-yl]propyl}-5-[2-(trifluoromethyl)pyrimidin-5-yl]pyrrolo[2,1-f][1,2,4]triazin-4-amine] | – | – | 8.23 | 8.31
CCC(c1cn(-c2cc(F)ccc2F)nn1)c1c(C#N)c(-c2cnc(C(F)(F)F)nc2)c2c(N)ncnn12 (single isomer, unassigned) [Example 8, 4-amino-7-{1-[1-(2,5-difluorophenyl)-1H-1,2,3-triazol-4-yl]propyl}-5-[2-(trifluoromethyl)pyrimidin-5-yl]pyrrolo[2,1-f][1,2,4]triazine-6-carbonitrile] | – | – | 7.76 | 7.89
CCC(c1cnn(-c2ccc(F)cc2F)c1)c1c(C#N)c(-c2cnc(C(F)(F)F)nc2)c2c(N)ncnn12 (single isomer, unassigned) [Example 17, 4-amino-7-{1-[1-(2,4-difluorophenyl)-1H-pyrazol-4-yl]propyl}-5-[2-(trifluoromethyl)pyrimidin-5-yl]pyrrolo[2,1-f][1,2,4]triazine-6-carbonitrile] | – | – | 7.87 | 8.52
CC(c1cnn(-c2ccc(F)cc2F)c1)c1c(C#N)c(-c2cnc(C(F)(F)F)nc2)c2c(N)ncnn12 (single isomer, unassigned) [Example 21] | – | – | 8.50 | 9.18
CCC(c1cn(-c2ccccc2F)nn1)n1nc(-c2cnc(C(F)(F)F)nc2)c2c(N)ncnc21 (single isomer, unassigned) [Example 90, 1-{1-[1-(2-fluorophenyl)-1H-1,2,3-triazol-4-yl]propyl}-3-[2-(trifluoromethyl)pyrimidin-5-yl]-1H-pyrazolo[3,4-d]pyrimidin-4-amine] | – | – | 7.50 | 7.50
CCC(c1cnn(-c2ccccc2F)c1)c1c(C#N)c(-c2cnc(C(F)(F)F)nc2)c2c(N)ncnn12 (single isomer, unassigned) [Example 14, 4-amino-7-{1-[1-(2-fluorophenyl)-1H-pyrazol-4-yl]propyl}-5-[2-(trifluoromethyl)pyrimidin-5-yl]pyrrolo[2,1-f][1,2,4]triazine-6-carbonitrile] | – | – | 8.18 | 8.70
CC(c1cn(-c2ccccc2F)nn1)c1c(C#N)c(-c2cnc(C(F)(F)F)nc2)c2c(N)ncnn12 (single isomer, unassigned) [Example 2, 4-amino-7-{1-[1-(2-fluorophenyl)-1H-1,2,3-triazol-4-yl]ethyl}-5-[2-(trifluoromethyl)pyrimidin-5-yl]pyrrolo[2,1-f][1,2,4]triazine-6-carbonitrile] | – | – | 8.04 | 7.95
CCC(c1cnn(-c2ccc(F)cc2F)c1)c1c(C#N)c(-c2cnc(C(F)(F)F)nc2)c2c(N)ncnn12 (single isomer, unassigned) [Example 16, 4-amino-7-{1-[1-(2,4-difluorophenyl)-1H-pyrazol-4-yl]propyl}-5-[2-(trifluoromethyl)pyrimidin-5-yl]pyrrolo[2,1-f][1,2,4]thazine-6-carbonitrile] | – | – | 9.25 | 9.38
